Experimental data taken from patent publication US20250000936A1, “TREATMENT OF GEOGRAPHIC ATROPHY” (Apellis Pharmaceuticals, Inc., priority 2021, published 2025).

Assays:
[1] = tested on: patients with geographic atrophy (GA) secondary to age-related macular degeneration (AMD); assay: DERBY and OAKS combined: GA lesion growth and visual function; type: in vivo, human; settings: for reduction in GA lesion growth from baseline compared to sham: combined analysis (FIG. 30); for reduction in lesion growth, study eye vs untreated fellow eye: bilateral GA, 12 months (FIG. 7D); for reduction in foveal lesion growth vs pooled sham / reduction in extrafoveal GA lesion growth vs pooled sham: month 18; for reduction of GA lesion growth vs pooled sham: months 18-24
Excerpt: (§1) This Example describes 12-month results from two Phase 3 multi-center, randomized, double-masked, sham-controlled studies (“DERBY” and “OAKS”) to compare the efficacy and safety of intravitreal APL-2 (pegcetacoplan, also referred to as “Study Drug” in this Example) therapy with sham injections in patients with geographic atrophy (GA) secondary to age-related macular degeneration (AMD).
(§2) To participate in the studies, subjects must have been diagnosed with GA of the macula secondary to AMD in the study eye. At screening, male and female subjects were required to fulfill all of the following inclusion criteria to be eligible for participation in the study. If both eyes met the inclusion criteria, the eye with the worst normal luminance visual acuity at the screening visit was designated as the study eye. If both eyes had the same visual acuity, the right eye was selected as the study eye. Ocular-specific inclusion criteria applied to the study eye only, unless otherwise specified.
(§3) The design of the DERBY and OAKS studies are schematically depicted in FIG. 2. Each subject was assigned a unique screening number after signing the informed consent. Subjects who completed the study screening assessments and met all the eligibility criteria entered the study and were randomized on Day 1. As part of the screening process, the reading center evaluated FAF, OCT, Digital Color Fundus Photograph (DCFP), Near Infrared Reflectance (NIR), and fluorescein angiography (FA) to provide an objective assessment of subject eligibility. Subjects were randomized 2:2:1:1 to receive treatment with Study Drug monthly (PM), Study Drug every other month (PEOM), sham injection monthly (SM) or sham injection every other month (SEOM), respectively.
(§4) The Study Drug was pegcetacoplan (also referred to as “APL-2”) (see FIG. 1), which was provided for intravitreal injection at 15 mg/0.1 mL (150 mg/mL) as a sterile, isotonic solution of pegcetacoplan in acetate-buffer, pH 5.0, containing trehalose, supplied in stoppered glass vials.
(§5) The primary endpoint in the studies was the change from baseline to Month 12 in total area of GA lesion(s) in the study eye (in mm^2) based on Fundus Autofluorescence (FAF). Key secondary endpoints included change from baseline in the mean threshold sensitivity of all points (study eye) assessed by mesopic microperimetry at Month 24; change from baseline in monocular maximum reading speed (study eye), at Month 24 as assessed by MNRead or Radner reading charts (in select sites); change from baseline in mean FRI Index score (subject-level assessment) at Month 24; and change from baseline in NL-BCVA score (study eye) at Month 24 as assessed by Early Treatment Diabetic Retinopathy Study (ETDRS) chart. Additional secondary endpoints included change from baseline in LL-BCVA score (study eye) over time as assessed by ETDRS chart; change from baseline in the total area of GA lesion(s) in the study eye (in mm^2) as assessed by FAF over time other than Month 12; change from baseline in monocular critical print size (study eye), as assessed by MNRead or Radner reading charts (in select sites) over time; change from baseline in the NEI VFQ-25 distance activity subscale score (in select sites) (subject level assessment) over time; change from baseline in the number of scotomatous points assessed by mesopic microperimetry over time; and change from baseline in the mean threshold sensitivity within 500 microns outside the GA lesion, (perilesional points) assessed by mesopic microperimetry over time.
(§6) Two sham treatment arms (SM and SEOM) were pooled into a single control (Sham) group for analyses.
(§7) Subjects were analyzed in the treatment arm assigned at randomization.
(§8) Unless otherwise noted, hypothesis testing and estimation of treatment effects will be performed with a mixed effect model for repeated measure (MMRM) that includes data from all three treatment arms (PM, PEOM, and Sham). […]

[2] = tested on: patients with geographic atrophy (GA) secondary to age-related macular degeneration (AMD); assay: DERBY Phase 3 study: GA lesion growth in study eye by fundus autofluorescence; type: in vivo, human; settings: for reduction in GA lesion growth from baseline compared to sham: over 24 months; for reduction in lesion growth in the study eye versus the untreated study eye: bilateral GA; for reduction in lesion growth in the study eye versus the untreated study eye / percentage reduction versus sham pooled: 18 months
Excerpt: as §1, §2, §3, §4, §5, §6, §7, §8

[3] = post-hoc quartiles of GA lesion growth over 18 months (FIG. 27)

Poly(oxy-1,2-ethanediyl), α-hydro-ω-hydroxy-, 15,15′-diester with N-acetyl-L-isoleucyl-L-cysteinyl-L-valyl-1-methyl-L-tryptophyl-L-glutaminyl-L-α-aspartyl-L-tryptophylglycyl-L-alanyl-L-histidyl-L-arginyl-L-cysteinyl-L-threonyl-2-[2-(2-aminoethoxy) ethoxy]acetyl-N^6-carboxy-L-lysinamide cyclic (2->12)-(disulfide) [pegcetacoplan]
reduction in GA lesion growth from baseline compared to sham ([1]; EOM, p<0.0001): 24% | reduction in GA lesion growth from baseline compared to sham ([1]; monthly, p<0.0001): 30% | key secondary endpoints measuring visual function, pegcetacoplan vs sham ([1]; combined, 24 months (FIG. 31, NL-BCVA)): no clinically meaningful difference | reduction in lesion growth, study eye vs untreated fellow eye ([1]; combined, every other month): 11% | reduction in lesion growth, study eye vs untreated fellow eye ([1]; combined, monthly): 16% | reduction in GA lesion growth vs pooled sham ([1]; combined, every other month, month 12, p<0.0012): 14% | reduction in foveal lesion growth vs pooled sham ([1]; combined, every other month, p 0.0069): 13% | reduction in extrafoveal GA lesion growth vs pooled sham ([1]; combined, every other month, p=0.0006): 21% | reduction in GA lesion growth vs pooled sham ([1]; combined, every other month, months 0-6 segment): 12% | reduction in GA lesion growth vs pooled sham ([1]; combined, every other month, months 12-18 segment): 17% | reduction of GA lesion growth vs pooled sham ([1]; combined, extrafoveal lesions, EOM): 28% | reduction in GA lesion growth vs pooled sham ([1]; combined, extrafoveal lesions, every other month, 12 months, p=0.0002): 23% | reduction in GA lesion growth vs pooled sham ([1]; combined, extrafoveal lesions, monthly, 12 months, p<0.0001): 26% | reduction of GA lesion growth vs pooled sham ([1]; combined, extrafoveal lesions, monthly): 28% | reduction of GA lesion growth vs pooled sham ([1]; combined, foveal lesions, EOM): 28% | reduction of GA lesion growth vs pooled sham ([1]; combined, foveal lesions, monthly): 34% | reduction in GA lesion growth vs pooled sham ([1]; combined, monthly, month 12, p<0.0001): 17% | reduction in extrafoveal GA lesion growth vs pooled sham ([1]; combined, monthly, p<0.0001): 26% | reduction in foveal lesion growth vs pooled sham ([1]; combined, monthly, p=0.0070): 13% | reduction in GA lesion growth vs pooled sham ([1]; combined, monthly, months 0-6 segment (FIG. 12B)): 13% | reduction in GA lesion growth vs pooled sham ([1]; combined, monthly, months 12-18 segment (FIG. 12B)): 21% | reduction of GA lesion growth versus sham ([2]; EOM, months 18-24, p=0.0002): 29% | reduction in GA lesion growth from baseline compared to sham ([2]; EOM, p 0.0030 nominal): 16% | reduction in lesion growth in the study eye versus the untreated study eye ([2]; every other month, p<0.0001): 16% | reduction in lesion growth in the study eye versus the untreated study eye ([2]; monthly, p=0.0053): 12% | reduction in GA lesion growth versus sham ([2]; distance >250 microns, every other month, p=0.0689): 19% | reduction in GA lesion growth versus sham ([2]; distance >250 microns, monthly, p=0.2691): 13% | reduction in GA lesion growth versus sham ([2]; distance ≤250 microns, every other month, p=0.0724): 12% | reduction in GA lesion growth versus sham ([2]; distance ≤250 microns, monthly, p=0.0490): 12% | percentage reduction versus sham pooled ([2]; every other month, >50 microns, p=0.0047): 24% | percentage reduction versus sham pooled ([2]; every other month, >100 microns, p=0.0022): 26% | percentage reduction versus sham pooled ([2]; every other month, >150 microns, p=0.0076): 24% | percentage reduction versus sham pooled ([2]; every other month, >200 microns, p 0.0229): 20% | reduction in GA lesion growth vs pooled sham ([2]; every other month, month 12, p=0.0750): 11% | reduction in GA lesion growth, covariate-adjusted post-hoc analysis ([2]; every other month, month 18, p=0.0023): 16% | reduction in extrafoveal GA lesion growth, covariate-adjusted ([2]; every other month, month 18, p=0.0035): 24% | reduction in extrafoveal GA lesion growth vs pooled sham ([2]; every other month, month 18, p=0.0075): 23% | reduction in GA lesion growth vs pooled sham ([2]; every other month, month 18, p=0.0332 nominal): 12% | reduction in foveal GA lesion growth, covariate-adjusted ([2]; every other month, month 18, p=0.1723): 9% | reduction in foveal GA lesion growth vs pooled sham ([2]; every other month, month 18, p=0.5538): 4% | reduction in GA lesion growth vs pooled sham ([2]; every other month, months 6-12 segment (FIG. 12A)): 16% | percentage reduction versus sham pooled ([2]; monthly, >50 microns, p=0.0433): 18% | percentage reduction versus sham pooled ([2]; monthly, >100 microns, p=0.0266): 20% | percentage reduction versus sham pooled ([2]; monthly, >150 microns, p 0.0468): 19% | percentage reduction versus sham pooled ([2]; monthly, >200 microns, p=0.0985): 16% | reduction in GA lesion growth vs pooled sham ([2]; monthly, month 12, p=0.0528): 12% | reduction in GA lesion growth vs pooled sham ([2]; monthly, month 18, p 0.0254 nominal): 13% | reduction in GA lesion growth, covariate-adjusted post-hoc analysis ([2]; monthly, month 18, p=0.0024): 16% | reduction in foveal GA lesion growth, covariate-adjusted ([2]; monthly, month 18, p=0.0280): 14% | reduction in extrafoveal GA lesion growth, covariate-adjusted ([2]; monthly, month 18, p=0.0380): 18% | reduction in extrafoveal GA lesion growth vs pooled sham ([2]; monthly, month 18, p=0.0606): 17% | reduction in foveal GA lesion growth vs pooled sham ([2]; monthly, month 18, p=0.2015): 9% | reduction in GA lesion growth vs pooled sham ([2]; monthly, months 6-12 segment (FIG. 12A)): 17% | reduction of GA lesion growth versus sham ([2]; monthly, months 18-24, p<0.0001): 36% | reduction in GA lesion growth from baseline compared to sham ([2]; monthly, p=0.0004 nominal): 19% | decrease of patients in Q4 (fast progressors), relative to sham [2, 3]: 33% | increase of patients in Q1 (slow progressors), relative to sham [2, 3]: 15%
